We go through five compounds from paper PMC3303165 (Dalton Transactions (Cambridge, England : 2003), 2012).

Each structure is given as a SMILES string.

The subject of data set [1] is Plasmodium falciparum D10 (chloroquine sensitive strain). Format: cell-based. The note with it: D10, read-out: D10: IC50.
Data set [2] relates to Plasmodium falciparum Dd2 (chloroquine resistant strain). The class given is cell-based. Particulars: DD2, read-out: Dd2: IC50.
For data set [3] the following is noted: cited from earlier work.
The test system of another data set is heme aggregation. The note with it: acetate buffer (pH=4.9)/n-octanol interface; cited from earlier work.

Regarding `CCN(CC)CCCC(C)Nc1ccnc2cc(Cl)ccc12` (stereo not shown) [CQ, chloroquine], the IC50 (as a rule, the concentration needed to halve the response being measured) in data set [1] stood at 25 ± 9 nM; in data set [2], 143 ± 14 nM. Also, in data set [3] (pH 4.9), the “D(pH=4.9) water/n-octanol distribution coefficient” value is reported as 0.15 ± 0.01. Also, the “D(pH=6.6) water/n-octanol distribution coefficient” value in data set [3] (pH 6.6) was 6.61 ± 0.64. Moreover, in the data set with heme aggregation, the “HAIR50 (drug to hemin ratio required to inhibit 50% of heme aggregation)” value is 2.92.

For `Clc1ccc2c(NCCNCc3ccccn3)ccnc2c1` [L^1, N-(2-((pyridin-2-yl)methylamino)ethyl)-7-chloroquinolin-4-amine], the IC50 amounted to 30 ± 2 nM in data set [1] and 220 ± 30 nM in data set [2].

As for `Cn1ccnc1CNCCNc1ccnc2cc(Cl)ccc12` [L^2, N-(2-((1-methyl-1H-imidazol-2-yl)methylamino)ethyl)-7-chloroquinolin-4-amine], the figures for the IC50 in data set [1] and in data set [2] were 190 ± 30 nM and 250 ± 60 nM, respectively.

In the case of `Oc1ccccc1CN=CCNc1ccnc2cc(Cl)ccc12` [L^3, N-(2-((2-hydroxyphenyl)methylimino)ethyl)-7-chloroquinolin-4-amine], the IC50 in data set [1] is 550 ± 300 nM; in data set [2], above 30000 nM.

For `Clc1ccc2c(NCCN(Cc3ccccn3)Cc3ccccn3)ccnc2c1` [L^4, N-(2-(bis((pyridin-2-yl)methyl)amino)ethyl)-7-chloroquinolin-4-amine], the IC50 in data set [1] and in data set [2] was 1300 ± 100 nM throughout.
